Reference: ChEMBL document CHEMBL4308829, “Design and Synthesis of Novel Positive Allosteric Modulators of α7 Nicotinic Acetylcholine Receptors with the Ability To Rescue Auditory Gating Deficit in Mice” (J Med Chem, 2018)
Calls of active or inactive are those of the source.

Columns and labels:
[1] = target: T1, Neuronal acetylcholine receptor subunit alpha-7 (Homo sapiens, UniProt P36544); experiment: Positive allosteric modulation of human alpha7 nAChR expressed in Xenopus laevis oocytes assessed as increase in acetylcholine-induced channel current at 10 uM at -90 mV holding potential preincubated for 2 mins followed by co-application with acetylcholine for 10 secs by two-electrode voltage clamp method relative to control; format: cell-based
T1 sequence (P36544 whole entry): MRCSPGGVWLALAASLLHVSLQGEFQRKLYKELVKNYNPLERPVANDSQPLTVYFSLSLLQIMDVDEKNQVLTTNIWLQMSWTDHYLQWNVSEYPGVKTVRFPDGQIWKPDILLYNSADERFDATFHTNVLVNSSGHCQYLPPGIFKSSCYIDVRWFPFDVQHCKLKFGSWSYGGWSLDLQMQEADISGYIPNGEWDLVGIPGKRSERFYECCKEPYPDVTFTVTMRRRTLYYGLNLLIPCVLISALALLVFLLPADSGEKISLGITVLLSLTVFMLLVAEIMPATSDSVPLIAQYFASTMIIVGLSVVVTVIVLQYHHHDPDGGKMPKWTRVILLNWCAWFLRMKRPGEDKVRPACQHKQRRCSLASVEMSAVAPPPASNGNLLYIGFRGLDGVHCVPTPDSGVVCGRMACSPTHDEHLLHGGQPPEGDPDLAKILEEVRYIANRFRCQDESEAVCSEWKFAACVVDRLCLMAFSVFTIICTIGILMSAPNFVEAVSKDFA

[2] = target: T1, Neuronal acetylcholine receptor subunit alpha-7; experiment: Agonist activity at human alpha7 nAChR expressed in Xenopus laevis oocytes assessed as induction of channel current at -90 mV holding potential by two-electrode voltage clamp method; format: cell-based
[3] = target: T1, Neuronal acetylcholine receptor subunit alpha-7; experiment: Positive allosteric modulation of human alpha7 nAChR expressed in Xenopus laevis oocytes assessed as increase in acetylcholine-induced channel current at -90 mV holding potential preincubated for 2 mins followed by co-application with acetylcholine for 10 secs by two-electrode voltage clamp method; format: cell-based
Mus musculus = experiment: Anti-schizophrenic activity in C57BL/6J mouse assessed as protection against MK-801-induced auditory gating deficit by measuring prepulse inhibition impairment at 1 mg/kg, ip at 8 to 16 dB prepulse intensity (reference value: 11%); format: functional; design: scale not given: the % may be the effect or the level left

SMILES | %max [1] | Activity [2] | EC50 [3] [µM] | Activity (Mus musculus) [%]
Cc1ccc(Nc2nc3ncn(-c4c(C)cccc4Cl)c(=O)c3s2)cc1C | 650% | inactive |  | 
Cc1ccc(-c2nc3ncn(-c4c(C)cccc4Cl)c(=O)c3s2)cc1 | 185% | inactive |  | 
Cc1cccc(Cl)c1-n1cnc2nc(SCc3ccc(Cl)cc3)sc2c1=O | 444% | inactive | 1.19 | 
Cc1ccc(Nc2nc3ncn(-c4c(C)cccc4Cl)c(=O)c3s2)cc1 | 1620% | inactive | 8.45 | 
CCc1ccc(Nc2nc3ncn(-c4c(C)cccc4Cl)c(=O)c3s2)cc1 | 250% | inactive |  | 
CCCNc1nc2ncn(-c3c(C)cccc3Cl)c(=O)c2s1 | inactive | inactive |  | 
Cc1cccc(Cl)c1-n1cnc2nc(SCCc3ccccc3)sc2c1=O | 112% | inactive |  | 
Cc1cccc(Cl)c1-n1cnc2nc(Nc3ccc(F)cc3)sc2c1=O | 250% | inactive |  | 
O=c1c2sc(SCc3ccccc3)nc2ncn1-c1ccccc1Cl | 217% | inactive |  | 
Cc1cccc(Cl)c1-n1cnc2nc(Nc3ccc(F)c(F)c3)sc2c1=O | 300% | inactive |  | 
Cc1cccc(Cl)c1-n1cnc2nc(Nc3ccccc3F)sc2c1=O | 200% | inactive |  | 
Cc1cccc(Cl)c1-n1cnc2nc(SCc3ccc(F)cc3F)sc2c1=O | 1050% | inactive | 3.54 | 
Cc1cccc(Cl)c1-n1cnc2nc(Nc3cc(Cl)ncn3)sc2c1=O | 200% | inactive |  | 
Cc1cccc(Cl)c1-n1cnc2nc(SCc3ccccc3F)sc2c1=O | 558% | inactive | 2.05 | 
COc1ccc(CSc2nc3ncn(-c4c(C)cccc4Cl)c(=O)c3s2)cc1 | 292% | inactive |  | 
Cc1ccccc1-n1cnc2nc(SCc3ccccc3)sc2c1=O | 171% | inactive |  | 
Cc1cccc(Cl)c1-n1cnc2nc(Nc3ccccc3)sc2c1=O | 300% | inactive |  | 
O=c1c2sc(SCc3ccccc3)nc2ncn1-c1ccccc1F | 127% | inactive |  | 
Cc1cccc(Cl)c1-n1cnc2nc(Nc3ccncn3)sc2c1=O | 101% | inactive |  | 
Cc1cc(Nc2nc3ncn(-c4c(C)cccc4Cl)c(=O)c3s2)cc(C)c1C | 600% | inactive |  | 
O=c1c2sc(SCc3ccccc3)nc2ncn1-c1cccc(F)c1 | 119% | inactive |  | 
Cc1ccccc1Nc1nc2ncn(-c3c(C)cccc3Cl)c(=O)c2s1 | 300% | inactive |  | 
Cc1cccc(Cl)c1-n1cnc2nc(SCc3ccc(F)cc3)sc2c1=O | 788% | inactive | 2.17 | 
Cc1ccc(CNc2nc3ncn(-c4c(C)cccc4Cl)c(=O)c3s2)cc1 | 111% | inactive |  | 
Cc1cccc(Cl)c1Nc1ncnc2nc(SCc3ccccc3)sc12 | 33% | inactive |  | 
Cc1cccc(Cl)c1-n1cnc2nc(Nc3ccc(Cl)cc3)sc2c1=O | 200% | inactive |  | 

SMILES | %max [1] | Activity [2] | EC50 [3] [µM] | Activity (Mus musculus) [%]
Cc1ccc(CSc2nc3ncn(-c4c(C)cccc4Cl)c(=O)c3s2)cc1 | 321% | inactive |  | 
Cc1cccc(Nc2nc3ncn(-c4c(C)cccc4Cl)c(=O)c3s2)c1 | 1540% | inactive |  | 
Cc1cc(C)cc(Nc2nc3ncn(-c4c(C)cccc4Cl)c(=O)c3s2)c1 | 1100% | inactive |  | 
Cc1cccc(Cl)c1-n1cnc2nc(Nc3cccc(Cl)c3)sc2c1=O | 300% | inactive |  | 
Cc1cccc(Cl)c1-n1cnc2nc(Nc3ccc(Br)cc3)sc2c1=O | 150% | inactive |  | 
Cc1ccc(C(=O)Nc2nc3ncn(-c4c(C)cccc4Cl)c(=O)c3s2)cc1 | 450% | inactive | 20.4 | 
O=c1c2sc(SCc3ccccc3)nc2ncn1-c1ccc(F)cc1 | 75% | inactive |  | 
Cc1cccc(Cl)c1-n1cnc2nc(Nc3ccccn3)sc2c1=O | inactive | inactive |  | 
Cc1cccc(Cl)c1-n1cnc2nc(NCc3ccccc3)sc2c1=O | inactive | inactive |  | 
Cc1cccc(Cl)c1-n1cnc2nc(SCc3ccc(Br)cc3)sc2c1=O | 320% | inactive |  | 
Cc1cccc(Cl)c1-n1cnc2nc(Nc3ccc(Cl)nn3)sc2c1=O | inactive | inactive |  | 
Cc1cc(Cl)cc(Nc2nc3ncn(-c4c(C)cccc4Cl)c(=O)c3s2)c1 | 305% | inactive |  | 
Cc1ccc(Sc2nc3ncn(-c4c(C)cccc4Cl)c(=O)c3s2)cc1 | 226% | inactive |  | 
Cc1ccc(Nc2nc3ncn(-c4c(C)cccc4Cl)c(=O)c3s2)cc1F | 387% | inactive | 5.65 | 
CN1CCN(C2=Nc3cc(Cl)ccc3Nc3ccccc32)CC1 [CLOZAPINE] |  |  |  | 32
Cc1cccc(Cl)c1-n1cnc2nc(Nc3ccc(OC(F)(F)F)cc3)sc2c1=O | 200% | inactive |  | 
Cc1cccc(Cl)c1-n1cnc2nc(SCc3cccc(F)c3)sc2c1=O | 1140% | inactive | 7.65 | 
COc1ccc(Nc2nc3ncn(-c4c(C)cccc4Cl)c(=O)c3s2)cc1 | 200% | inactive |  | 
O=c1c2sc(SCc3ccccc3)nc2ncn1-c1ccc(Cl)cc1 | 104% | inactive |  | 
Cc1cccc(Cl)c1-n1cnc2nc(Nc3cccc(F)c3)sc2c1=O | 450% | inactive |  | 
Cc1cccc(Cl)c1-n1cnc2nc(SCCCc3ccccc3)sc2c1=O | 174% | inactive |  | 
Cc1nc(Cl)cc(Nc2nc3ncn(-c4c(C)cccc4Cl)c(=O)c3s2)n1 | 320% | inactive |  | 
Cc1ccc(N(C)c2nc3ncn(-c4c(C)cccc4Cl)c(=O)c3s2)cc1 | 107% | inactive |  | 
Cc1ccc(S(=O)(=O)Nc2nc3ncn(-c4c(C)cccc4Cl)c(=O)c3s2)cc1 | 97% | inactive |  | 
Cc1ccc(Nc2ccc3ncn(-c4c(C)cccc4Cl)c(=O)c3c2)cc1 | 63% | inactive |  | 
